Measured values taken from patent publication US9216995B2, “Pyridone derivative having integrase inhibitory activity” (SHIONOGI & CO., LTD., priority 2010, dated 2015).

Experiments:
HIV = test: Anti-HIV activity (HeLa-CD4 cells, β-gal reporter assay); assay type: cell-based; details: Human immunodeficiency virus 1, 72 h, concentration to inhibit HIV infection by 50%, 3 days, luminescence
Description: A HeLa-CD4 cell suspension (2.5×10^4 cell/well) was dispensed to each well on an assay plate. After incubating at 37° C. for 1 hour under condition of 5% CO2, a solution to dilute a compound (50 μL) was added to each well (provided that a cell control was excluded). A culture solution (50 μL) was added to a well of the cell control. The plate was incubated at 37° C. for 3 days under condition of 5% CO2.
After the culture solution was aspirated from each well, 100 μL of a cell lysate of the reporter assay kit—β gal—was added to all wells, and then the plate was frozen at −80° C. to completely lyse cells. The plate was left at room temperature to unfreeze the cell lysate, it was centrifuged at 1200 rpm for 5 minutes at room temperature (Kubota centrifuge KR-600P). 20 μL of the supernatant was dispensed from each well to 96-well black plate, 100 μL of a luminescent reagent of the reporter assay kit—β gal—was added to each well. The plate was incubated at room temperature for 1 hour. The luminescence intensity from each well was measured by MicroBeta TRILUX instrument (PerkinElmer). A concentration (conc.) to inhibit HIV infection by 50% was calculated to obtain an EC50 value.

HIV integrase = HIV integrase (Human immunodeficiency virus type 1 group M subtype B, UniProt P04585); test: Integrase inhibitory activity (strand transfer ELISA on streptavidin plates); assay type: biochemical; details: integrase inhibition rate, absorbance OD 405 nm
Description: By the same method as that described in Experimental Example 1 of Patent Document 2, a substrate DNA solution (2 μmol/μl) and a target DNA solution (5 μmol/μl) were prepared. […] Each sequence of a substrate DNA and a target DNA is as described in the same Experimental Example.
(2) Measurement of Inhibition Rate (IC50 Value)
Onto Immobilizer—Streptavidin Plates (manufactured by NUNC) was added 50 μl of a substrate DNA solution (2 μmol/μl). After adsorbing at room temperature for 60 minutes under shaking, it was washed with a phosphate buffer two times.
Then, to each well prepared as described above were added 12 μl of a buffer (composition: 150 mM MOPS (pH7.2), 75 mM MnCl2, 50 mM 2-mercaptoethanol, 25% glycerol, 500 μg/ml bovine serum albumin-fraction V), and 51 μl of a reaction solution prepared from 39 μl of distilled water. Then, 9 μl of an integrase solution (30 μmol) was added, and the mixture was mixed well. To a well as a negative control (NC) was added 9 μl of a diluting solution (composition: 20 mM MOPS (pH 7.2), 400 mM potassium glutamate, 1 mM EDTA, 0.1% NP-40, 20% glycerol, 1 mM DTT, 4 M urea), and this was mixed well using a plate mixer.
After the plate was incubated at 30° C. for 60 minutes, the reaction solution was discarded, followed by washing with 200 μl of a washing buffer (composition: 150 mM MOPS (pH 7.2), 50 mM 2-mercaptoethanol, 25% glycerol, 500 μg/ml bovine serum albumin-fraction V) three times.
Then, to each well were added 12 μl of a buffer (composition: 150 mM MOPS (pH 7.2), 75 mM MgCl2, 50 mM 2-mercaptoethanol, 25% glycerol, 500 μg/ml bovine serum albumin-fraction V), and 53 μl of a reaction solution prepared from 41 μl of distilled water. Further, 6 μl of a solution of a test compound in DMSO was added to each well, and 6 μl of DMSO was added to a well as a positive control (PC), followed by mixing well using a plate mixer. After the plate was incubated at 30° C. for 60 minutes, 1 μl of a target DNA (5 μmol/μl) was added, and this was mixed well using a plate mixer.
After each plate was incubated at 30° C. for 10 minutes, the reaction solution was discarded, followed by washing with a phosphate buffer two times. Then, an anti-digoxigenin antibody labeled with alkaline phosphatase (sheep Fab fragment: manufactured by Boehringer) was diluted 2000-fold with an antibody diluting solution, 100 μl of the diluent was added to bind at 30° C. for 1 hour, and this was washed successively with a phosphate buffer containing 0.05% Tween 20 two times, and a phosphate buffer two times. […]
C abs.: Absorbance of well of compound
NC abs.: Absorbance of NC
PC abs.: Absorbance of PC

SMILES	EC50 (HIV) [nM]	IC50 (HIV integrase) [nM]
C[C@@H]1CCO[C@H]2Cn3cc(C(=O)NCCc4cccs4)c(=O)c(O)c3C(=O)N12 [Compound A-65]	22	–
C[C@@H]1CCO[C@H]2Cn3cc(C(=O)NC(c4ccccc4)c4ccccc4)c(=O)c(O)c3C(=O)N12 [Compound A-15]	16	–
C[C@@H]1CCO[C@H]2Cn3cc(C(=O)NCc4cccs4)c(=O)c(O)c3C(=O)N12 [Compound A-39]	11	27
C[C@@H]1CCO[C@H]2Cn3cc(C(=O)NCc4cc5ccccc5s4)c(=O)c(O)c3C(=O)N12 [Compound A-20]	11	28.4
C[C@@H]1CCO[C@H]2Cn3cc(C(=O)NCC4CCCCCC4)c(=O)c(O)c3C(=O)N12 [Compound A-50]	32	13.5
C[C@@H]1CCO[C@H]2Cn3cc(C(=O)NCCC4CCCCC4)c(=O)c(O)c3C(=O)N12 [Compound A-42]	46	–
C[C@@H]1CCO[C@H]2Cn3cc(C(=O)NCc4ccoc4)c(=O)c(O)c3C(=O)N12 [Compound A-41]	42	–
C[C@@H]1CCO[C@H]2Cn3cc(C(=O)NNC(=O)c4ccc(F)cc4)c(=O)c(O)c3C(=O)N12 [Compound A-38]	15	–
C[C@@H]1CCO[C@H]2Cn3cc(C(=O)NCc4nccs4)c(=O)c(O)c3C(=O)N12 [Compound A-12]	32	–
C[C@@H]1CCO[C@H]2Cn3cc(C(=O)NCc4ccsc4)c(=O)c(O)c3C(=O)N12 [Compound A-56]	6.4	29.7
C[C@@H]1CCO[C@H]2Cn3cc(C(=O)NC[C@@H]4CCCO4)c(=O)c(O)c3C(=O)N12 [Compound A-21]	25	–
C[C@@H]1CCO[C@H]2Cn3cc(C(=O)NCc4nc5ccccc5s4)c(=O)c(O)c3C(=O)N12 [Compound A-66]	38	–
